Numbers after ± are expanded uncertainties.
Assays:
[1] = Liquid; for mass density: 298.15 K, 101.33 kPa, Vibrating tube method; for vapor or sublimation pressure: Ebulliometric method (Recirculating still)
[2] = refractive index (Na D-line) (dimensionless); settings: 298.15 K; 101.33 kPa; Liquid; Standard Abbe refractometry
[3] = mn = molality of the nth substance listed, in mol/kg; settings: 298.15 K, 101 kPa, Liquid, Vibrating tube method

CCOC(C)=O [ethyl acetate]
mass density [1]: 897.72 ± 0.1 kg/m3 | vapor or sublimation pressure ([1]; 350.45 K): 101 ± 1 kPa | refractive index [2]: 1.3698 ± 0.0004

O=[N+]([O-])[O-].O=[N+]([O-])[O-].[Zn+2] [nitric acid, zinc salt] + CCO
mass density ([3]; m1 = 0.0053): 785.9 ± 0.13 kg/m3 | mass density ([3]; m1 = 0.0106): 786.55 ± 0.13 kg/m3 | mass density ([3]; m1 = 0.0159): 787.2 ± 0.13 kg/m3 | mass density ([3]; m1 = 0.0212): 787.84 ± 0.13 kg/m3 | mass density ([3]; m1 = 0.0265): 788.49 ± 0.13 kg/m3 | mass density ([3]; m1 = 0.0292): 788.78 ± 0.13 kg/m3 | mass density ([3]; m1 = 0.0319): 789.09 ± 0.13 kg/m3 | mass density ([3]; m1 = 0.0346): 789.38 ± 0.13 kg/m3 | mass density ([3]; m1 = 0.0372): 789.7 ± 0.13 kg/m3 | mass density ([3]; m1 = 0.0399): 789.99 ± 0.13 kg/m3 | mass density ([3]; m1 = 0.0426): 790.29 ± 0.13 kg/m3 | mass density ([3]; m1 = 0.0453): 790.6 ± 0.13 kg/m3 | mass density ([3]; m1 = 0.048): 790.89 ± 0.13 kg/m3 | mass density ([3]; m1 = 0.0507): 791.19 ± 0.13 kg/m3 | mass density ([3]; m1 = 0.0533): 791.49 ± 0.13 kg/m3 | mass density ([3]; m1 = 0.0804): 794.55 ± 0.13 kg/m3

CCO [ethanol]
mass density [1]: 785.22 ± 0.22 kg/m3 | vapor or sublimation pressure ([1]; 352.75 K): 101 ± 1 kPa | refractive index [2]: 1.3599 ± 0.0004

O=[N+]([O-])[O-].O=[N+]([O-])[O-].[Mg+2] [magnesium nitrate] + CCO
mass density ([3]; m1 = 0.0067): 782.9 ± 0.13 kg/m3 | mass density ([3]; m1 = 0.0135): 783.59 ± 0.13 kg/m3 | mass density ([3]; m1 = 0.0203): 784.17 ± 0.13 kg/m3 | mass density ([3]; m1 = 0.0271): 784.79 ± 0.13 kg/m3 | mass density ([3]; m1 = 0.0339): 785.43 ± 0.13 kg/m3 | mass density ([3]; m1 = 0.0373): 785.75 ± 0.13 kg/m3 | mass density ([3]; m1 = 0.0407): 786.06 ± 0.13 kg/m3 | mass density ([3]; m1 = 0.0441): 786.43 ± 0.13 kg/m3 | mass density ([3]; m1 = 0.0475): 786.74 ± 0.13 kg/m3 | mass density ([3]; m1 = 0.051): 787.05 ± 0.13 kg/m3 | mass density ([3]; m1 = 0.0544): 787.34 ± 0.13 kg/m3 | mass density ([3]; m1 = 0.0578): 787.64 ± 0.13 kg/m3 | mass density ([3]; m1 = 0.0612): 787.92 ± 0.13 kg/m3 | mass density ([3]; m1 = 0.0647): 788.22 ± 0.13 kg/m3 | mass density ([3]; m1 = 0.0681): 788.49 ± 0.13 kg/m3

[Cl-].[Cl-].[Mg+2] [magnesium chloride] + CCO
mass density ([3]; m1 = 0.0105): 782.98 ± 0.13 kg/m3 | mass density ([3]; m1 = 0.0211): 783.73 ± 0.13 kg/m3 | mass density ([3]; m1 = 0.0317): 784.5 ± 0.13 kg/m3 | mass density ([3]; m1 = 0.0423): 785.26 ± 0.13 kg/m3 | mass density ([3]; m1 = 0.053): 786.01 ± 0.13 kg/m3 | mass density ([3]; m1 = 0.0583): 786.38 ± 0.13 kg/m3 | mass density ([3]; m1 = 0.0636): 786.75 ± 0.13 kg/m3 | mass density ([3]; m1 = 0.0689): 787.12 ± 0.13 kg/m3 | mass density ([3]; m1 = 0.0743): 787.49 ± 0.13 kg/m3 | mass density ([3]; m1 = 0.0796): 787.86 ± 0.13 kg/m3 | mass density ([3]; m1 = 0.085): 788.23 ± 0.13 kg/m3 | mass density ([3]; m1 = 0.0903): 788.57 ± 0.13 kg/m3 | mass density ([3]; m1 = 0.0957): 788.93 ± 0.13 kg/m3

From the NIST ThermoML archive (doi:10.1021/je300886k)
